ChEMBL document CHEMBL4765340, “Novel potent antiplatelet thrombotic agent derived from biguanide for ischemic stroke” (Eur J Med Chem, 2020)
Active and inactive are the calls of the source. The rule behind the calls is not given here.

How the values were obtained:
[1] = Inhibition of thrombin-stimulated human platelet aggregation measured after 3 hrs by scanning electron microscopy; assay type: functional, tissue-based
[2] = Suppression of P-selectin expression in thrombin-stimulated human platelets by measuring CD62P positive platelets at 0.10 mM after 3 hrs by flow cytometry analysis (reference value: 78.2%); assay type: functional; details: Platelet, at 0.1 mM
[3] = Toxicity in calcein-labelled platelet-mediated ferric chloride-induced arterial injury thrombosis po dosed C57BL/6J mouse model assessed as change in coagulation factor VII to XII treated twice a day measured upto 7 days; assay type: organism-based; details: in vivo, 168 h, time <=7 day
[4] = Suppression of P-selectin expression in thrombin-stimulated human platelets by measuring CD62P positive platelets at 1 mM after 3 hrs by flow cytometry analysis (reference value: 78.2%); assay type: functional; details: Platelet
[5] = test system: Platelet; assay: Antiplatelet activity in thrombin-stimulated human platelet assessed as reduction in the clot retraction preincubated at 0.5 mM with fibrinogen for 3 hrs followed by added thrombin measured after 0.5 hrs (reference value: 80.3 =/- 5.5%); assay type: functional; parameters: scale not given: the % may be the effect or the level left; details: time 3.5 hrs
[6] = Toxicity in calcein-labelled platelet-mediated ferric chloride-induced arterial injury thrombosis po dosed C57BL/6J mouse model assessed as change in thrombin time treated twice a day measured upto 7 days; assay type: organism-based; details: in vivo, 168 h, time <=7 day
[7] = Toxicity against C57BL/6J mouse assessed as spleen morphology at 200 mg/kg twice a day measured after 60 days; assay type: organism-based; details: in vivo, 1440 h, time 60 day
[8] = test system: Mus musculus; assay: Antithrombotic activity in transient focal cerebral ischemic mouse model occlusion induced 60 mins of the right middle cerebral artery followed by reperfussion 23 hrs assessed as reduction of brain infract volume at 200 mg/kg, po twice daily for 7 days by TTC staining based […] analysis (reference value: 46 +/- 5%); assay type: functional; parameters: scale not given: the % may be the effect or the level left; details: time 7 day
[9] = test system: Mus musculus; assay: Antithrombotic activity in transient focal cerebral ischemic mouse model occlusion induced 60 mins of the right middle cerebral artery followed by reperfussion 23 hrs assessed as decrease in blood viscosity at 200 mg/kg, po twice daily for 7 days; assay type: functional, organism-based; details: time 7.0 day
[10] = Inhibition of thrombin-stimulated human platelet aggregation by measuring aggregation at 0.50 mM measured after 1 hrs by scanning electron microscopy; assay type: functional; parameters: scale not given: the % may be the effect or the level left; details: dose 0.5 mM
[11] = test system: Mus musculus; assay: Antithrombotic activity in calcein-labelled platelet-mediated ferric chloride-induced arterial injury thrombosis C57BL/6J mouse model assessed as thrombus length at 50 mg/kg, po administrated twice a day measured upto 7 days (reference value: 4.4 +/- 0.4 mm); assay type: functional; details: time day <=7
[12] = Inhibition of thrombin-stimulated human platelet aggregation by measuring aggregation at 0.50 mM measured after 4 hrs by scanning electron microscopy; assay type: functional; parameters: scale not given: the % may be the effect or the level left; details: dose 0.5 mM
[13] = test system: Mus musculus; assay: Antithrombotic activity in calcein-labelled platelet-mediated ferric chloride-induced arterial injury thrombosis C57BL/6J mouse model assessed as thrombus length at 300 mg/kg, po administrated twice a day measured upto 7 days (reference value: 4.4 +/- 0.4 mm); assay type: functional; details: time day <=7
[14] = Inhibition of thrombin-stimulated human platelet aggregation by measuring aggregation at 0.10 mM measured after 3 hrs by scanning electron microscopy (Rvb= 87.2 +/- 4.0%); assay type: functional; parameters: scale not given: the % may be the effect or the level left; details: dose 0.1 mM
[15] = Suppression of P-selectin expression in thrombin-stimulated human platelets by measuring CD62P positive platelets at 0.05 mM after 3 hrs by flow cytometry analysis (reference value: 78.2%); assay type: functional; details: Platelet
[16] = Toxicity in C57BL/6J mouse assessed as change in bicarbonate level at 200 mg/kg twice daily for 60 days relative to control; assay type: organism-based; details: in vivo, 1440 h, time 60 day
[17] = Toxicity against C57BL/6J mouse assessed as liver morphology at 200 mg/kg twice a day measured after 60 days; assay type: organism-based; details: in vivo, 1440 h, time 60 day
[18] = test system: Platelet; assay: Cytotoxicity against human platelet assessed as extracellular LDH levels changes at 1 mM incubated for 3 hrs; assay type: cell-based; details: 1000 µM
[19] = Toxicity against C57BL/6J mouse assessed as body weight at 200 mg/kg twice a day measured after 60 days; assay type: organism-based; details: in vivo, 1440 h, time 60 day
[20] = Toxicity in C57BL/6J mouse assessed as change in sodium level at 200 mg/kg twice daily for 60 days relative to control; assay type: organism-based; details: in vivo, 1440 h, time 60 day
[21] = test system: Platelet; assay: Cytotoxicity against human platelet assessed as extracellular LDH levels changes at 1 mM incubated for 1 hrs; assay type: cell-based; details: 1000 µM
[22] = test system: Mus musculus; assay: Antithrombotic activity in calcein-labelled platelet-mediated ferric chloride-induced arterial injury thrombosis C57BL/6J mouse model assessed as average time to occlusive thrombosis at 200 mg/kg, po administrated twice a day measured upto 7 days (reference value: 7.9 +/- 0.7 min); assay type: functional; details: time day <=7
[23] = test system: Platelet; assay: Inhibition of thrombin-stimulated human platelet aggregation at 1 mM measured after 3 hrs by scanning electron microscopy (Rvb= 87.2 +/- 4.0%); assay type: functional, tissue-based
[24] = test system: Mus musculus; assay: Antithrombotic activity in calcein-labelled platelet-mediated ferric chloride-induced arterial injury thrombosis C57BL/6J mouse model assessed as thrombus length at 100 mg/kg, po administrated twice a day measured upto 7 days (reference value: 4.4 +/- 0.4 mm); assay type: functional; details: time day <=7
[25] = Inhibition of thrombin-stimulated human platelet aggregation by measuring aggregation at 0.50 mM measured after 3 hrs by scanning electron microscopy; assay type: functional; parameters: scale not given: the % may be the effect or the level left; details: dose 0.5 mM
[26] = Toxicity against C57BL/6J mouse assessed as kidney morphology at 200 mg/kg twice a day measured after 60 days; assay type: organism-based; details: in vivo, 1440 h, time 60 day
[27] = Inhibition of thrombin-stimulated human platelet aggregation by measuring aggregation at 0.01 mM measured after 3 hrs by scanning electron microscopy (Rvb= 87.2 +/- 4.0%); assay type: functional; parameters: scale not given: the % may be the effect or the level left
[28] = Toxicity in C57BL/6J mouse assessed as change in thrombo-cytocrit at 200 mg/kg twice daily for 60 days relative to control; assay type: organism-based; details: in vivo, 1440 h, time 60 day
[29] = Toxicity in C57BL/6J mouse assessed as change in platelet ratio at 200 mg/kg twice daily for 60 days relative to control; assay type: organism-based; details: in vivo, 1440 h, time 60 day
[30] = test system: Mus musculus; assay: (§1) Antithrombotic activity in transient focal cerebral ischemic mouse model occlusion induced 60 mins of the right middle cerebral artery followed by reperfussion 23 hrs assessed as decrease in mortality rate at 200 mg/kg, po twice daily for 7 days […]; assay type: functional, organism-based; details: time 7.0 day
[31] = Suppression of glycoprotein IIb/IIIa activation in thrombin-stimulated human platelets by measuring activated GPIIb/IIIa at 0.01 mM measured after 3 hrs by PAC-1-FITC dye based flow cytometry (reference value: 90.1%); assay type: functional; details: Platelet
[32] = Toxicity in C57BL/6J mouse assessed as change in immature platelet fraction at 200 mg/kg twice daily for 60 days relative to control; assay type: organism-based; details: in vivo, 1440 h, time 60 day
[33] = Toxicity in C57BL/6J mouse assessed as change in platelet count at 200 mg/kg twice daily for 60 days relative to control; assay type: organism-based; details: in vivo, 1440 h, time 60 day
[34] = Toxicity against C57BL/6J mouse assessed as lungs morphology at 200 mg/kg twice a day measured after 60 days; assay type: organism-based; details: in vivo, 1440 h, time 60 day
[35] = test system: Platelet; assay: Inhibition of thrombin-stimulated human platelet aggregation measured after 3 hrs by scanning electron microscopy with 0.01 to 1 U/ml varying concentration of thrombin by lumi-aggregometer; assay type: functional, tissue-based
[36] = Toxicity against C57BL/6J mouse assessed as pancreas morphology at 200 mg/kg twice a day measured after 60 days; assay type: organism-based; details: in vivo, 1440 h, time 60 day
[37] = Toxicity in C57BL/6J mouse assessed as change in chloride level at 200 mg/kg twice daily for 60 days relative to control; assay type: organism-based; details: in vivo, 1440 h, time 60 day
[38] = test system: Mus musculus; assay: as §1, with “activated platelets with red blood cells and loose textured stroke thrombi” for “decrease in mortality rate”; assay type: functional, organism-based; details: time 7.0 day

SMILES: CN(C)C(=N)NC(=N)NS(=O)(=O)C(F)(F)F
- IC50 [1]: 150 µM
- level, % of control at 100 µM [2]: 54.7%
- Activity [3]: Non-Toxic
- level, % of control at 1000 µM [4]: 46.6%
- Activity [5]: 28.4%
- Activity [6]: Non-Toxic
- Activity [7]: Non-Toxic
- Activity [8]: 5%
- Activity [9]: Active
- Activity [10]: 60%
- Activity [11]: 3.5 mm
- Activity [12]: 19.5%
- Activity [13]: 1.4 mm
- Activity [14]: 44.2%
- level, % of control at 50 µM [15]: 58.9%
- Activity [16]: Non-Toxic
- Activity [17]: Non-Toxic
- Activity [18]: Non-Toxic
- Activity [19]: Non-Toxic
- Activity [20]: Non-Toxic
- Activity [21]: Non-Toxic
- Time [22]: 21.2 min
- inhibition [23]: inactive
- Activity [24]: 2.8 mm
- Activity [25]: 21%
- Activity [26]: Non-Toxic
- Activity [27]: 75.9%
- Activity [28]: Non-Toxic
- Activity [29]: Non-Toxic
- Activity [30]: Active
- level, % of control at 10 µM [31]: 84.2%
- Activity [32]: Non-Toxic
- Activity [33]: Non-Toxic
- Activity [34]: Non-Toxic
- inhibition [35]: Active
- Activity [36]: Non-Toxic
- Activity [37]: Non-Toxic
- Activity [38]: Active
